Source: patent publication US20240366540A1, “MITOFUSIN INHIBITORS AND USES THEREOF” (Albert Einstein College of Medicine, priority 2021, published 2024)

What was measured:
MFN1 and MFN2 = MFN1 and MFN2 gene expression and protein levels; assay type: cell-based
Method: Western blot. Western blots were performed from whole cell lysates (WCL) prepared in lysis buffer containing 50 mM Tris-HCl pH 7.5, 1% Triton X-100, 150 mM NaCl, 5 mM MgCl2, 1 mM EGTA and 10% glycerol in the presence of protease inhibitor cocktail (Roche).
Analysis of mitochondrial biogenesis-related genes by q-PCR. Total RNA was extracted by using RNeasy Mini Kit (Qiagen) followed by cDNA synthesis using the SuperScript IV VILO Master Mix (Thermo Scientific), both performed according to the manufacturer's protocol. q-PCR was performed using the following primers: […]
For the q-PCR reaction, Power SYBR Green master mix (Thermo Scientific) was used according to the manufacturer's instructions. Briefly, each reaction consisted of 10 ng cDNA, 5 μL Power SYBR Green master mix, 200 nM primers (forward and reverse), and RNase-free water up to 10 μL. q-PCR was performed on the ViiA 7 Real-Time PCR System (Thermo Scientific) with the following cycle parameter: 95° C. for 10 min, 40 cycles of 95° C. for 15 s, and 60° C. for 1 min. q-PCR products were analyzed by melting curves for unspecific products or primer dimer formation. Rpl39 was used as housekeeping gene and 2^−ΔΔCT method was applied to determine the relative mRNAs expression.

MEFs [1] = test: Metabolomics (TCA cycle carboxylic acids, NAD, NADH); assay type: cell-based, mouse
Method: Metabolomics. […] Cells were harvested using a cell scraper and centrifuged at 1200 rpm in 4° C. for 3 min. Each cell pellet sample was suspended into 250 to 700 μL of 80% aqueous methanol in an Eppendorf tube. The samples were vortex mixed for 15 s and sonicated in an ice-water bath for 5 min, followed by centrifugal clarification at 15,000 rpm and 5° C. in an Eppendorf […] centrifuge. The clear supernatants were collected. A standard stock solution of TCA cycle carboxylic acids, NAD and NADH was prepared in 80% methanol as S1. This standard solution S1 was serially diluted 1 to 4 (v/v) with the same solvent to make standard solutions S2 to S10. 20 μL of each standard solution and an aliquot of the clear supernatant from each cell was mixed with 20 μL of an internal standard solution containing 9 ^13C- or deuterium labeled analogues of the TCA cycle carboxylic acids (except isocitric acid), 20 μL of 200 mM 3-NPH solution and 20 μL of 150 mM of EDC solution. The mixtures were allowed to react at 30° C. for 30 min. After reaction, 120 μL of water was added to each solution. 10 μL of the resultant solutions was injected into a C18 UPLC column to quantitate the TCA cycle carboxylic acids by UPLC-MRM/MS with (-) ion detection, according to the procedure we described in a publication.

MEFs [2] = test: RNA-seq gene expression; assay type: cell-based, mouse; conditions: RNA-seq
Text: RNA-seq. Sequencing results were demultiplexed and converted to FASTQ format using Illumina bcl2fastq software. The sequencing reads were adapter and quality trimmed with Trimmomatic and then aligned to the mouse genome (build mm10/GRCm38) using the splice-aware STAR aligner. The featureCounts program was utilized to generate counts for each gene based on how many aligned reads overlap its exons. These counts were then normalized and used to test for differential expression using negative binomial generalized linear models implemented by the DESeq2 R package.

MEFs [3] = test: Mitochondrial respiration in cellulo (OCR, Seahorse XF24); assay type: cell-based, mouse; conditions: WT MEFs; MASM7 1 μM or MFI8 20 μM, 6 hrs
Method: Mitochondrial respiration in cellulo. Mitochondrial oxygen consumption rates (OCR) were assessed using a XF24 Analyzer (Seahorse Biosciences, Billerica MA, USA). In brief, 3×10^4 MEFs were cultured in a XF24 cell culture microplate containing DMEM supplemented with 10% fetal bovine serum. […] OCR was normalized to cell number or total protein content per well for each condition tested.

cells = test: Cell viability assay (CellTiter-Glo); assay type: cell-based; conditions: 72 hours
Method: Cell viability assay. […] Cell viability was assayed after 72 hrs by addition of CellTiter-Glo reagent according to the manufacturer's protocol (Promega). Luminescence was measured using a […] microplate reader (TECAN). Viability assays were performed in at least triplicate and the data normalized to vehicle-treated control wells.

MEFs [4] = test: Mitochondrial depolarization assay (TMRE membrane potential); assay type: cell-based, mouse
Method: Mitochondrial depolarization assay (mtΔΨ). MEFs (10^4 cells/well) were seeded in a 96-well black plate and treated with MASM7 or MFI8 for 6 hrs. Following treatments, cells were stained with 250 nM TMRE (Sigma; Cat. 87917) for 20 min at 37° C. Subsequently, cells were washed with thrice with PBS. Fluorescence intensity was detected by a M100 microplate reader (TECAN, Ex: 540 nm/Em: 579 nm).

mitochondrial biomass = test: Mitochondrial biomass (Tomm20 protein, mitotracker green intensity, mitochondrial to nuclear DNA ratio); assay type: cell-based
Method: Western blot. Western blots were performed from whole cell lysates (WCL) prepared in lysis buffer containing 50 mM Tris-HCl pH 7.5, 1% Triton X-100, 150 mM NaCl, 5 mM MgCl2, 1 mM EGTA and 10% glycerol in the presence of protease inhibitor cocktail (Roche). WCL were separated on a 4-12% NuPAGE MES gel (Invitrogen), transferred into a PVDF membrane, block for 1 hr and immunoblot with the corresponding anti-bodies. Determination of mtDNA to genomic DNA ratio by q-PCR. DNA was extracted using DNeasy Blood and Tissue kit (Qiagen) according to the manufacturer's protocol. q-PCR was used to determine the ratio of mitochondrial DNA (mtDNA) and genomic DNA (gn DNA). The following primers were used for q-PCR reaction: […]

MEFs [5] = test: Caspase-3/7 activation assay; assay type: cell-based, mouse; conditions: 6 hr, Caspase-Glo 3/7
Method: Caspase-3/7 activation assay. Cells (5×10^3 cells/well) were seeded in a 96-well white plate and treated with MASM7, MFI8. Caspase 3/7 activation was measured after 6 hr by addition of the Caspase-Glo 3/7 reagent according to the manufacturer's protocol (Promega). Luminescence was detected by a F200 PRO microplate reader (TECAN). Caspase assays were performed in at least triplicate and the data normalized to vehicle-treated control wells. Dilutions of MASM7 or MFI8 were performed using a TECAN D300e Digital Dispenser from 10 mM stocks.

MEFs [6] = test: Mitochondrial aspect ratio (Mito AR), live cell imaging
Method: Live cell imaging. MEFs were seeded on chamber slides (MatTek Corporation: 35 mm dishes, No. 1.5, 14 mm glass diameter) at ˜70% confluence. […] Images were taken with Leica SP5 inverted confocal microscope. Data were analyzed with Image J software. >200 mitochondria were measured per condition in mitochondrial aspect ratio.
Measurement of mitochondrial aspect ratio (Mito AR). Images that depict stained mitochondria with mitotracker green were analyzed using FIJI We measured for each mitochondrion its length and width. Then, we divided the length by the width for each mitochondrion to get its mitochondrial aspect ratio. >200 mitochondria were measured per treatment.

[7] = tested on: mitochondrial biogenesis markers; test: Mitochondrial biogenesis markers by q-PCR; assay type: cell-based
Method: Analysis of mitochondrial biogenesis-related genes by q-PCR. Total RNA was extracted by using RNeasy Mini Kit (Qiagen) followed by cDNA synthesis using the SuperScript IV VILO Master Mix (Thermo Scientific), both performed according to the manufacturer's protocol. q-PCR was performed using the following primers: For the q-PCR reaction, Power SYBR Green master mix (Thermo Scientific) was used according to the manufacturer's instructions. […] Rpl39 was used as housekeeping gene and 2^−ΔΔCT method was applied to determine the relative mRNAs expression.

MEFs [8] = test: DNA damage, yH2AX immunofluorescence in MEFs; assay type: cell-based, mouse; conditions: 6 h
Method: Immunofluorescent analysis and microscopy. […] After treatments, cells were washed with PBS and fixed with 4% PFA for 15 min. […] After incubation with primary antibodies, cells were washed with PBS and incubated with the appropriate mouse secondary antibody (ThermoFisher Scientific; A-11001) in the blocking solution. After PBS washes, coverslips were dipped in water and mounted on glass slides using Vectashield containing DAPI (Vector laboratories). […] Data were analyzed with ImageJ.

[9] = MFN1/MFN2 DKO MEFs reconstituted with WT MFN2

CC(Sc1nnc(C2CC2)n1-c1ccccc1)C(=O)Nc1sc2c(c1C(N)=O)CCC2 (stereo not shown) [MASM7, 2-(2-((5-cyclopropyl-4-phenyl-4H-1,2,4-triazol-3-yl)thio)propanamido)-5,6-dihydro-4H-cyclopenta[b]thiophene-3-carboxamide]
MFN1 and MFN2 gene expression and corresponding protein levels (MFN1 and MFN2): neither MASM7 nor MFI8 altered
total NAD+/NADH ratio (MEFs [1]): no effect on total NAD^+/NADH ratio
metabolites of the TCA cycle (MEFs [1]; UPLC-MRM/MS): no significant effect in the majority of the metabolites of the TCA cycle
gene expression of subunits of the respiratory complexes (MEFs [2]): altered expression of selected genes of the respiratory complexes rather than inducing a consistent trend
respiration and mitochondrial ATP production (OCR) (MEFs [3]): increased basal and maximal respiration and mitochondrial ATP production
cellular viability (cells): neither MFI8 nor MASM7 decreased cellular viability
mitochondrial membrane potential (TMRE) (MEFs [4]; [9]): significantly increased mitochondrial membrane potential
mitochondrial membrane potential (TMRE) (MEFs [4]; WT MEFs, 6 hrs): concentration responsively increased mitochondrial membrane potential
compound-induced increase in mitochondrial membrane potential (MEFs [4]; co-treated with myxothiazol or rotenone): revoked
Tomm20 protein levels, mitotracker green intensity and mitochondrial to nuclear DNA ratio (mitochondrial biomass): neither MASM7 nor MFI8 altered
caspase-3/7 activity (MEFs [5]): no effect
mitochondrial aspect ratio (MEFs [6]; MFN1/MFN2 DKO MEFs reconstituted with D725A/L727A or L727A MFN2 mutants): not when reconstituted with D725A/L727A or L727A MFN2 mutants
mitochondrial aspect ratio (MEFs [6]; [9]): markedly increased mitochondrial aspect ratio
gene expression levels of mitochondrial biogenesis markers [7]: no alteration
DNA damage (yH2AX foci) (MEFs [8]; MFN1/MFN2 DKO MEFs): did not induce DNA damage in any of the cell lines
DNA damage (yH2AX foci) (MEFs [8]; WT MEFs): did not induce DNA damage in any of the cell lines
